How the values were obtained:
[1] = test system: RNA polymerase II Ser2 phosphorylation (p-Ser2) in SU-DHL-10 cells; test: In vitro washout, p-Ser2 Western blot, SU-DHL-10; format: cell-based, human; conditions: 1 µmol/L
Procedure: Evaluation of the pharmacodynamic extent and duration of CDK9 inhibition were performed in vitro using the human DLBCL cell lines SU-DHL-4 and SU-DHL-10, harboring MYC amplification and MYC overexpression with P57T mutation, respectively. Cells were seeded 18 hours prior to treatment for 4 hours with one of three CDK9 inhibitors, enitociclib (0.25 and1 µmol/L), atuveciclib (1 µmol/L) or KB-0742 (1 µmol/L), cells were washed, and incubation continued until 48 hours posttreatment. Samples were collected before treatment (−4), immediately after treatment (0), and at 1, 2, 4, 8, 12, 16, 24, and 48 hours after washout for RNA sequencing (RNA-seq), qPCR, and Western blotting analyses.
The levels of p-Ser2, p-Ser5 and total RNA polymerase II, Myc, Mcl-1, cleaved PARP (cPARP), and cleaved Caspase 3 were assessed by Western blotting and quantified near-infrared detection and background corrected quantification of fluorescence intensity on an Odyssey Imaging System with IRDye secondary antibodies (LI-COR Biosciences). For quantification, the protein levels were normalized to GAPDH or HSP90, expressed as a ratio to DMSO or vehicle control at matched timepoints. The normalized relative protein levels of p-Ser2 were used for a treatment effect comparison by performing an ANOVA using PROC MIXED in SAS. The ANOVA model included treatment, timepoints and their interactions as fixed effects. The least square means (LSM), differences between the LSMs and associated P values were generated. The following primary antibodies were used: Rpb1 NTD (D8L4Y) rabbit antibody [Cell Signaling Technology (CST), #14958], anti-RNA polymerase II subunit B1 (phospho CTD Ser-2, clone 3E10) rat antibody (Merck, 04-1571-I), recombinant anti-c-MYC rabbit antibody (Y69; Abcam, #ab32072), MCL1 (D5V5L) rabbit antibody (CST, #39224), cleaved-PARP (Asp214) (E2T4K) mouse antibody (CST, #32563), HSP90 (C45G5) rabbit antibody (CST, #4877), and GAPDH mouse antibody (Zytomed Systems, #ZYT-RGM2-6C5).

MYC mRNA in whole blood = MYC mRNA in whole blood of patients (RNA-seq, PK/PD modeling); format: in vivo, human; conditions: for maximum extent of inhibition for MYC mRNA: C1D1, 30 mg; for MYC mRNA downregulation: C1D15, third weekly 30 mg dose; for mean fold change mRNA levels of MYC: after C1D1 dose; for mean fold change mRNA levels of MYC / MYC mRNA fold change: RNA-seq; for MYC mRNA fold change: after C1D15 dose
Procedure: (§1) Total RNA was extracted from blood of patients and cell lines using RNeasy Plus Mini Kit (QIAGEN, #74136) and cDNA prepared with the Maxima First Strand cDNA Synthesis Kit for RT-PCR (Thermo Fisher Scientific, K1642) according to manufacturer's instructions. The integrity of purified total RNA was evaluated using an Agilent 2100 Bioanalyzer system and RNA 6000 Nano Kit (Agilent, #5067-1511). Differential gene expression analysis was performed (Fios Genomics) from RNA-seq data (Discovery Life Sciences). MYC and MCL1 mRNA levels were measured by qPCR in vitro and in vivo, using a Taqman qPCR system (Thermo Fisher Scientific), TaqMan Fast Universal PCR Master Mix (2X) no AmpErase (#4352042) and TaqMan probes for MYC (Hs00153408_m1) and MCL1 (Hs03043899_m1). RNA-seq data were analyzed using DESeq2 ([35]).
(§2) Fifteen patients with refractory or relapsed DH-DLBCL or other MYC+ NHL were treated with enitociclib (30 mg, 21-day cycle, once weekly x3) as a 30-minute intravenous infusion on study days 1, 8, and 15 (NCT02635672). Longitudinal gene expression levels were analyzed by RNA-seq, and enitociclib plasma concentrations were measured using LC/MS-MS. The clinical study protocol was approved by the Institutional Review Board of participating institutions and complied with the Declaration of Helsinki, current Good Clinical Practice guidelines, and local laws and regulations. Written informed consent was provided by all participants prior to the initiation of any study-specific procedure.
(§3) All pharmacokinetic parameters were calculated by noncompartmental methods as described previously ([36]) using WinNonlin v5.3 (Certara LP). Pharmacokinetic/pharmacodynamic modeling was performed using SAAM II v2.3.2 (The Epsilon Group). Pooled pharmacokinetic data from all patients [n = 15 for single dose, cycle 1 day 1 (C1D1) and n = 11 for multiple doses, cycle 1 day 15 (C1D15)] were characterized using a one-compartment model with intravenous dosing. Subsequently, the pharmacokinetic/pharmacodynamic relationship of enitociclib plasma concentrations to MCL1 and MYC mRNA change was characterized using an indirect response model ([37]) on pooled biomarker data where enitociclib concentrations inhibit the formation of MCL1 or MYC mRNA as described by the following equation: […]
(§4) PD is defined as MCL1 or MYC mRNA expression level as a percentage from baseline, t (h) is the time, kin (1/h) is the formation rate of MCL1 or MYC, IC50 (µg/L) is the enitociclib concentration where there is 50% inhibition of PD, kout (h^−1) is the rate constant describing the loss of PD, and n is the hill coefficient. At homeostasis, kin = kout (PD); therefore, kout was replaced by kin/(PD)initial where (PD)initial is equal to 100%. Estimates of pharmacokinetic and pharmacodynamic parameters from pharmacokinetic/pharmacodynamic modeling of pooled data are presented as the estimate followed by CV in parentheses.
(§5) RNA-seq data generated from the analysis of two cell lines treated with the three CDK9 inhibitors was analyzed to investigate the differences in gene expression levels between various posttreatment timepoints and the pretreatment samples. Quality control assessment and exploratory data analysis by principal component analysis (PCA) were done on raw counts and on normalized count data. Normalization of RNA-seq count data was done using trimmed mean of M-values normalization and transformed with voom, resulting in log2 counts per million with associated precision weights. […] Significance values (Padj) were adjusted for multiple testing, by controlling the FDR using the Benjamini–Hochberg procedure. […] RNA-seq data generated from blood samples taken from patients before and after their first dose (C1D1) or after multiple doses, before and after their third dose (C1D15) were analyzed and normalized using the same pipeline as cell lines for comparisons.

MCL1 mRNA in whole blood = MCL1 mRNA in whole blood of patients (RNA-seq, PK/PD modeling); format: in vivo, human; conditions: for Downregulation of MCL1 mRNA: C1D15
Procedure: as §1, §2, §3, §4, §5

[2] = Fraction unbound in cell media; format: in vitro ADME

**Q.** Which “reduction of p-Ser2” value ([1]; 4-hour treatment then washout) does the source give for `COc1cc(F)ccc1-c1cc(Nc2cc(CS(C)(=N)=O)ccn2)ncc1F` (stereo not shown) [enitociclib] here?
**A.** 50%

**Q.** And the “duration of p-Ser2 reduction” value ([1]; after treatment)?
**A.** up to 24 hours

**Q.** And the “maximum extent of inhibition for MYC mRNA” value (MYC mRNA in whole blood; other MYC+ NHL (n = 5), range 69.9%–90.5%)?
**A.** 82.3%

**Q.** What about the “maximum extent of inhibition for MYC mRNA” value (MYC mRNA in whole blood; patients with DH-DLBCL (n = 10), range 73.6%–94.8%) of the same compound?
**A.** 89.6%

**Q.** And the “MYC mRNA downregulation” value (MYC mRNA in whole blood; DH-DLBCL (n = 9), range 96.85%–50%)?
**A.** 86.71%

**Q.** And the “MYC mRNA downregulation” value (MYC mRNA in whole blood; other MYC+ NHL (n = 3), range 53.7%–86.9%)?
**A.** 71.08%

**Q.** And the “mean fold change mRNA levels of MYC” value (MYC mRNA in whole blood; DH-DLBCL)?
**A.** −3.45 (SD 0.68)

**Q.** What about the “MYC mRNA fold change” value (MYC mRNA in whole blood; DH-DLBCL) of the same compound?
**A.** −3.38 (SD 1.07)

**Q.** And the IC50 (MYC mRNA in whole blood; Homo sapiens, PK/PD indirect response model, pooled patient blood data, read-out: model estimated unbound IC50 for MYC mRNA)?
**A.** 0.0174 to 0.022 µM

**Q.** And the “mean fold change mRNA levels of MYC” value (MYC mRNA in whole blood; other MYC+ NHL)?
**A.** −2.61 (SD 0.54)

**Q.** And the “MYC mRNA fold change” value (MYC mRNA in whole blood; other MYC+ NHL)?
**A.** −1.97 (SD 0.75)

**Q.** What about the “maximal downregulation of MCL1 mRNA level in blood of patients postdose” value (MCL1 mRNA in whole blood; 30 mg dose) of the same compound?
**A.** 55.5%

**Q.** And the “maximal extent of MCL1 mRNA downregulation” value (MCL1 mRNA in whole blood; C1D1, 30 mg, other MYC+ NHL, range 22.5%–48.2%)?
**A.** 44.54%

**Q.** What about the “time of maximal MCL1 mRNA inhibition” value (MCL1 mRNA in whole blood; C1D1, 30 mg, patient with the transformed follicular lymphoma) of the same compound?
**A.** 8 hours postdose

**Q.** What about the “maximal extent of MCL1 mRNA downregulation” value (MCL1 mRNA in whole blood; C1D1, 30 mg, patients with DH-DLBCL, range 31%–52.4%) of the same compound?
**A.** 49.28%

**Q.** And the “Downregulation of MCL1 mRNA” value (MCL1 mRNA in whole blood; DH-DLBCL, range 30%–55.5%)?
**A.** 45.81%

**Q.** What about the “Downregulation of MCL1 mRNA” value (MCL1 mRNA in whole blood; other MYC+ NHL, range 0%–43.1%) of the same compound?
**A.** 18.27%

**Q.** What about the IC50 (MCL1 mRNA in whole blood; Homo sapiens, PK/PD indirect response model, pooled patient blood data, read-out: model estimated unbound IC50 for MCL1 mRNA) of the same compound?
**A.** 0.0612 to 0.0691 µM

**Q.** What about the fraction unbound [2] of the same compound?
**A.** 0.666

Source: paper PMC10634346 (Cancer Research Communications, 2023)
